Patent US6749863B1, “Targeted liposome gene delivery” (Georgetown University, priority 1997, dated 2004)
pIC50: −log10 of the molar value.

Experiments:
[1] = test system: MDA-MB-231; experiment: Chemosensitization, XTT cell proliferation assay; type: cell-based; settings: Homo sapiens; drug alone on untransfected MDA-MB-231 cells
Description: (§1) This example summarizes part of the in vitro p53-mediated chemosensitization experiments (XTT assays) performed on the cell lines for which transfection with transferrin-coupled or folate-coupled liposomes is described in Example 17. […] The chemosensitization effect is dependent upon the liposome used and the p53 DNA dose. VIN=vinblastine; DXR=doxorubicin; CDDP=cisplatin. Fold Sensitization is calculated from the individual IC50 values. DNA dose=ug of DNA applied per well (approximately 1×10^4 cells/well in a 96-well plate).

[2] = test system: U87; experiment: Chemosensitization, XTT cell proliferation assay; type: cell-based; settings: Homo sapiens, U-87 MG, drug alone on untransfected U87 cells
Description: as §1
(§2) The ability of the LipF(B)-delivered AS-HER-2 to sensitize MDA-MB-435, JSQ-3, DU145 and U87 (Human glioblastoma) cells to chemotherapeutic agents was evaluated. Sensitivity was determined using the XTT cell proliferation assay. […] Comparison of the cells treated with LipF(B) mediated AS-HER-2, to that of cells treated with a LipF(B) control oligonucleotide (SC) indicated a greater than 30 fold increase in sensitization of 435 cells to taxotere. In contrast, only a 2.5 fold level of sensitization was evident after transfection with AS-HER-2 using the commercial Lipofectin (Life Technologies, Inc.). Treatment of JSQ-3 cells with LipF(E)-AS-HER-2 increased the effect of docetaxel almost 25 fold. […] A two fold increase in sensitization of DU145 cells to docetaxel was seen after treatment with LipF(E)-AS-HER-2.

[3] = test system: PANC-1; experiment: Chemosensitization, XTT cell proliferation assay; type: cell-based; settings: Homo sapiens, PANC-1, drug alone on untransfected PANC-1 cells
Description: as §1
Here also a greater than 70 fold increase in drug sensitivity was induced by treatment with LipF(B)-AS-RAS.

[4] = test system: PANC-1 xenograft tumors; experiment: Systemic LipF-p53 plus chemotherapy, xenograft growth; type: in vivo, athymic nude mice; settings: single agent only
From the text: Xenograft tumors of pancreatic cancer cell line PANC-1 were induced by the subcutaneous inoculation of greater than 1×10^7 cells onto athymic nude mice. When the tumors reached approximately 500-1000 mm^3, the tumors were excised and minced into small (<1 mm) pieces. These freshly prepared tumor pieces (suspended in PBS) were inoculated subcutaneously (using a 14 g needle) onto the flanks of athymic nude mice. When the tumors reached an average of 100 mm^3 in volume, treatment was begun. The animals received, via intravenous injection, LipF(B)-p53. This liposome complex was administered twice/week to a total of 7 injections. The chemotherapeutic agent gemcitabine was also administered intraperitoneally at a dose of either 60mg/kg or 120mg/kg twice weekly. A total of 13 gemcitabine injections were administered. One group of animals also received twice weekly intratumoral injections of LipF(B)-p53 (a total 6) in addition to the intravenous administration of the LipF(B)-p53 and gemcitabine. […] This was particularly evident in the group that received both i.v. and i.t injections.

[5] = test system: JSQ-3; experiment: Chemosensitization, XTT cell proliferation assay; type: cell-based; settings: Homo sapiens, drug alone on untransfected JSQ-3 cells
Description: In addition to radiation, chemotherapy is becoming more commonly used in the treatment of SCCHN. As lack of functional wtp53 has been associated with failure to respond to chemotherapy, in this example we examined the effect of ligand-facilitated liposome mediated wtp53 gene therapy on sensitization of SCCHN cell line JSQ-3 to chemotherapeutic agents. 1×10^4 cells were plated/well of a 96-well plate. 24 hours later, the cells were transfected with LipT(A)-p53. Two days after transfection, anti-neoplastic agents were added at increasing concentrations (in triplicate). 4-6 days later the XTT cell proliferation assay was performed and IC50 values, the drug concentration yielding 50% growth inhibition, calculated.
as §1, with “DNA dose=ug of DNA applied per well (approximately 1×10^4 cells/well in a 96-well plate).” left out
The ability of the LipF(B)-delivered AS-HER-2 to sensitize MDA-MB-435, JSQ-3, DU145 and U87 (Human glioblastoma) cells to chemotherapeutic agents was evaluated. Sensitivity was determined using the XTT cell proliferation assay. […]

[6] = test system: DU145; experiment: Chemosensitization, XTT cell proliferation assay; type: cell-based; settings: Homo sapiens, DU-145, drug alone on untransfected DU145 cells
Description: as §1, §2

[7] = test system: DU145 xenograft tumors; experiment: Systemic LipF-p53 plus chemotherapy, xenograft growth; type: in vivo, mice; settings: complex twice/week, 5 injections, or docetaxel 10 mg/kg, alone
Description: Mice bearing subcutaneous DU145 xenograft tumors of approximately 100 mm^3 were injected, via the tail vein, with a ligand-liposome p53 complex using folate as the targeting ligand (LipF(B)-p53). This liposome complex was administered twice/week (to a total of 5 injections) along with the chemotherapeutic agent docetaxel at a dose of 10 mg/kg.

[8] = test system: MDA-MB-435 mammary fat pad xenograft tumors; experiment: Chemosensitization of xenograft tumors in vivo; parameters: species or system athymic nude mice; settings: AS-HER-2 only or docetaxel only
Description: Mice bearing subcutaneous mammary fat pad MDA-MB-435 tumors of approximately 100 mm^3 were i.v. injected via the tail vein with LipF(C)-p53 every 3-4 days for a total of eight injections. Doxorubicin (Dxr) (10 mg/kg) was injected i.v. weekly for 4 weeks. […] In a second experiment, two separate liposome compositions [LipF(E) and LipF(C)] were employed.
The ability of the LipF(B)-AS-HER-2 to target and sensitize preexisting MDA-MB-435 xenograft tumors to the chemotherapeutic agent docetaxel in vivo was examined by assessing tumor regression as well as tumor growth inhibition. Female athymic (Ncr nu/nu) mice carrying MDA-MB-435 mammary fat pad xenograft tumors of approximately 70 mm^3 were intravenously injected, via the tail vein, with LipF(B)-AS-HER-2 (at approximately 0.6 mM of oligonucleotides) every other day to a total of 11 injections. A total of 11 intravenous doses of docetaxel (approximately 20 mg/kg/dose every other day) were also administered to the animals. […] Therefore, the systemically delivered, targeted liposome delivery of antisense oligonucleotides, in this case AS-HER-2, was clearly able to sensitize these tumors to the chemotherapeutic agent, strongly inhibiting tumor growth almost three weeks after the end of treatment.

SMILES	pIC50 [1]	pIC50 [3]	pIC50 [6]	other results
COc1cccc2c1C(=O)c1c(O)c3c(c(O)c1C2=O)C[C@@](O)(C(=O)CO)C[C@@H]3O[C@H]1C[C@H](N)[C@H](O)[C@H](C)O1 [DXR, doxorubicin]	6.57	–	–	–
Nc1ccn([C@@H]2O[C@H](CO)[C@@H](O)C2(F)F)c(=O)n1 [Gemzar, gemcitabine]	–	6.10	–	pIC50 [2]: 5.89; Outcome of control groups (single treatments) [4]: euthanized due to tumor burden by day 54
CC(=O)O[C@H]1C(=O)[C@@]2(C)[C@H]([C@H](OC(=O)c3ccccc3)[C@]3(O)C[C@H](OC(=O)[C@H](O)[C@@H](NC(=O)c4ccccc4)c4ccccc4)C(C)=C1C3(C)C)[C@]1(OC(C)=O)CO[C@@H]1C[C@@H]2O [Taxol]	7.28	–	7.88	pIC50 [5]: 7.80
CC(=O)O[C@@]12CO[C@@H]1C[C@H](O)[C@@]1(C)C(=O)[C@H](O)C3=C(C)[C@@H](OC(=O)[C@H](O)[C@@H](NC(=O)OC(C)(C)C)c4ccccc4)C[C@@](O)([C@@H](OC(=O)c4ccccc4)[C@H]21)C3(C)C [Taxotere, docetaxel]	–	7.94	7.38	Tumor growth, single treatment [7]: neither the LipF(B)-p53 complex alone, nor docetaxel alone had any substantial effect on tumor growth; Tumor growth, single treatment [8]: some docetaxel effect
CC[C@]1(O)C[C@@H]2CN(CCc3c([nH]c4ccccc34)[C@@](C(=O)OC)(c3cc4c(cc3OC)N(C)[C@H]3[C@@](O)(C(=O)OC)[C@H](OC(C)=O)[C@]5(CC)C=CCN6CC[C@]43[C@@H]65)C2)C1 [Vln, vinblastine]	8.74	–	–	–
